Data on ten compounds can be found in patent publication US8288554B2, “Pyridin-3-yl derivatives as immunomodulating agents” (Actelion Pharmaceuticals Ltd., priority 2006, dated 2012).

For one assay, the target named is recombinant human S1P1 receptor (Homo sapiens, UniProt P21453). Kind of assay: GTPγS assay to determine EC50 values. It counts as biochemical. The conditions noted are these: agonist-induced 35S-GTPγS binding, membranes of CHO cells expressing recombinant human S1P1 receptor. The procedure: GTPγS binding assays are performed in 96 well microtiter plates (Nunc, 442587) in a final volume of 200 μl, using membrane preparations of CHO cells expressing recombinant human S1P1 receptor. Assay conditions are 20 mM Hepes (Fluka, 54461), 100 mM NaCl (Fluka, 71378), 5 mM MgCl2 (Fluka, 63064), 0.1% BSA (Calbiochem, 126609), 1 μM GDP (Sigma, G-7127), 2.5% DMSO (Fluka, 41644), […] ^35S-GTPγS (Amersham Biosciences, SJ1320). The pH is 7.4. Test compounds are dissolved and diluted in 100% DMSO and pre-incubated at room temperature for 30 min in 150 μl of the above assay buffer, in the absence of ^35S-GTPγS. After addition of 50 μl of ^35S-GTPγS, the assay is incubated for 1 h at rt. The assay is terminated by transfer of the reaction mixture to a Multiscreen plate (Millipore, MAHFC1H60) using a cell harvester from Packard Biosciences, and the plates are washed with ice-cold 10 mM Na2HPO4/NaH2PO4 (70%/30%), dried, sealed at the bottom and, after addition of 25 μl MicroScint20 (Packard Biosciences, order#6013621), sealed on the top. Membrane-bound ^35S-GTPγS is measured with a TopCount from Packard Biosciences.
recombinant human S1P1 receptor, sequence (P21453 whole entry): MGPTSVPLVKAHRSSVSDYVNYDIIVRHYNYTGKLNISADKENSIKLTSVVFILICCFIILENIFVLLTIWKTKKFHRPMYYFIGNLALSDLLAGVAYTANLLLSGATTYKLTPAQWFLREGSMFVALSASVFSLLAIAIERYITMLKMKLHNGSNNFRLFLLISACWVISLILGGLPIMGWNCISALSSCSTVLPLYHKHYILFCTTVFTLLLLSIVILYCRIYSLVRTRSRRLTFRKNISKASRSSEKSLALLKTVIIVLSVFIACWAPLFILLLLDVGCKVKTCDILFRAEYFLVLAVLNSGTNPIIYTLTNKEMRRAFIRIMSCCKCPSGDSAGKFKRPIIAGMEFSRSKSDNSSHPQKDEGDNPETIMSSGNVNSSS
EC50 is the concentration of agonist inducing 50% of the maximal specific ^35S-GTPγS binding. Specific binding is determined by subtracting non-specific binding from maximal binding. Maximal binding is the amount of cpm bound to the Multiscreen plate in the presence of 10 μM of S1P. Non-specific binding is the amount of binding in the absence of an agonist in the assay.
(In general: GTPγS resists hydrolysis and so accumulates on activated G proteins.)
In general, EC50 refers to the concentration that produces a half-maximal response. For the compound `Cc1cc(-c2noc(-c3cnc(OC(C)C)c(Cl)c3)n2)cc(C)c1OCC(O)CO` (racemic) [Example 1, (RS)-3-{4-[5-(5-chloro-6-isopropoxy-pyridin-3-yl)-[1,2,4]oxadiazol-3-yl]-2,6-dimethyl-phenoxy}-propane-1,2-diol], the concentration for a half-maximal effect (EC50) amounted to 0.6 nM.

With `Cc1cc(-c2nc(-c3cc(C)c(OCC(O)CNC(=O)CO)c(C)c3)no2)cnc1CC(C)C` (racemic) [Example 5, 2-Hydroxy-N—((RS)-2-hydroxy-3-{4-[5-(6-isobutyl-5-methyl-pyridin-3-yl)-[1,2,4]oxadiazol-3-yl]-2,6-dimethyl-phenoxy}-propyl)-acetamide], the 50% effective concentration (EC50) came out at 2.7 nM.

For the compound `Cc1cc(-c2nc(-c3cc(C)c(OCC(O)CNC(=O)CO)c(Cl)c3)no2)cnc1CC(C)C` (stereo not shown) [Example 42], the EC50 was 0.6 nM.

`COc1cc(-c2noc(-c3cnc(CC(C)C)c(C)c3)n2)cc(Cl)c1OCC(O)CNC(=O)CO` (stereo not shown) [Example 43]: the concentration for a half-maximal effect (EC50) was determined as 4 nM.

For `CCc1cc(-c2noc(-c3cnc(OC(C)C)c(C)c3)n2)cc(C)c1OC[C@@H](O)CNC(=O)CO` [Example 88], the EC50 amounted to 0.1 nM.

As for `CCc1cc(-c2noc(-c3cnc(OC(C)C)c(C)c3)n2)cc(C)c1CCC(=O)NCCO` [Example 89, 3-{2-Ethyl-4-[5-(6-isopropoxy-5-methyl-pyridin-3-yl)-[1,2,4]oxadiazol-3-yl]-6-methyl-phenyl}-N-(2-hydroxy-ethyl)-propionamide], the concentration giving a half-maximal response (EC50) stood at 3.5 nM.

For the compound `CCc1cc(-c2nc(-c3cnc(OC(C)C)c(C)c3)no2)cc(C)c1OC[C@@H](O)CO` [Example 92], the concentration for a half-maximal effect (EC50) turned out to be 5.1 nM.

For another assay, the system named is circulating lymphocytes. As to the kind of experiment: Assessment of in vivo efficacy: circulating lymphocytes after oral administration. Details: species or system rat. The note with it: 6 h after oral administration of 10 mg/kg, normotensive male Wistar rats, compared to vehicle group. On the procedure:
The efficacy of the compounds of Formula (I) is assessed by measuring the circulating lymphocytes after oral administration of 3 to 30 mg/kg of a compound of Formula (I) to normotensive male Wistar rats. The animals are housed in climate-controlled conditions with a 12 h-light/dark cycle, and have free access to normal rat chow and drinking water. Blood is collected before and 3, 6 and 24 h after drug administration. Full blood is subjected to hematology using Advia Hematology system (Bayer Diagnostics, Zurich, Switzerland).
All data are presented as mean±SEM. Statistical analyses are performed by analysis of variance (ANOVA) using Statistica (StatSoft) and the Student-Newman-Keuls procedure for multiple comparisons. The null hypothesis is rejected when p<0.05.
Lymphocyte counts 6 h after oral administration have been measured for 6 exemplified compounds and are in the range of −77% to −61% with an average of −68%.
`Cc1cc(-c2noc(-c3cnc(OC(C)C)c(Cl)c3)n2)cc(C)c1OCC(O)CNC(=O)CO` (racemic) [Example 3, N—((RS)-3-{4-[5-(5-chloro-6-isopropoxy-pyridin-3-yl)-[1,2,4]oxadiazol-3-yl]-2,6-dimethyl-phenoxy}-2-hydroxy-propyl)-2-hydroxy-acetamide]: the Lymphocyte counts is given as −71%.

For `CCc1cc(-c2noc(-c3cnc(CC(C)C)c(C)c3)n2)cc(C)c1OCC(O)CNC(=O)CO` (racemic) [Example 8, N—((RS)-3-{2-Ethyl-4-[5-(6-isobutyl-5-methyl-pyridin-3-yl)-[1,2,4]oxadiazol-3-yl]-6-methyl-phenoxy}-2-hydroxy-propyl)-2-hydroxy-acetamide], the Lymphocyte counts was −61%.

For the compound `Cc1cc(-c2noc(-c3cnc(CC(C)C)c(CC(C)C)c3)n2)cc(C)c1OCC(O)CO` (racemic) [Example 12, (RS)-3-{4-[5-(5,6-Diisobutyl-pyridin-3-yl)-[1,2,4]oxadiazol-3-yl]-2,6-dimethyl-phenoxy}-propane-1,2-diol], the Lymphocyte counts is listed as −61%.
